Measured values published in ChEMBL document CHEMBL1124997, “Mechanism and inhibition of cytochrome P-450 aromatase” (J Med Chem, 1990).

T1: Aromatase (Rattus norvegicus, UniProt P22443)
T1 sequence (P22443 whole entry): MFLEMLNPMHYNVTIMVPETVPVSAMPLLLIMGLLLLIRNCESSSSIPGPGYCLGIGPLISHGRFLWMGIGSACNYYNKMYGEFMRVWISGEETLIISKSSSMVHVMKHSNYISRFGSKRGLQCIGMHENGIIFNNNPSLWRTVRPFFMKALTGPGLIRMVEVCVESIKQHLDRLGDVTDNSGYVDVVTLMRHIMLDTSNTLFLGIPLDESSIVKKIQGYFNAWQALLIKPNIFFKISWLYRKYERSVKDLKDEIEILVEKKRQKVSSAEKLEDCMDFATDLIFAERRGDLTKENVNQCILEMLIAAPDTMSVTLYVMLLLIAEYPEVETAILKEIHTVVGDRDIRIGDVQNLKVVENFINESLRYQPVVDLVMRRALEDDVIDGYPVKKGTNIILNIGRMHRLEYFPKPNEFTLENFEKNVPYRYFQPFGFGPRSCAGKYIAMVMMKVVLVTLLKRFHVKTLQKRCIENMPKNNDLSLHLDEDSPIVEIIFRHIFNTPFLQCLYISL

T2: Aromatase (Homo sapiens, UniProt P11511)
T2 sequence (P11511 whole entry): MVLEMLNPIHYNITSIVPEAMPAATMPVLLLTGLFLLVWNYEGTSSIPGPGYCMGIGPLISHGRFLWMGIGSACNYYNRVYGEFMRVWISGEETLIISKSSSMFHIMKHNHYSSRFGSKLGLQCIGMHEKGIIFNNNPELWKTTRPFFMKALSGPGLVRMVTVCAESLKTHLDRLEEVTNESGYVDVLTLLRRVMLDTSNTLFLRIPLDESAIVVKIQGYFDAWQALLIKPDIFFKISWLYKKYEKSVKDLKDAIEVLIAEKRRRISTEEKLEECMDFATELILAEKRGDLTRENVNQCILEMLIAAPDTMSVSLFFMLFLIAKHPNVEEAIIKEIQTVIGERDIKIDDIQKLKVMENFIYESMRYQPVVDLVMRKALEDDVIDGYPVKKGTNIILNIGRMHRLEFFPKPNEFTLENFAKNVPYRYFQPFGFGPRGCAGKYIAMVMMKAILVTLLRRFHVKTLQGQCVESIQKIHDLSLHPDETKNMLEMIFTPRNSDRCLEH

B1: Aromatase (Homo sapiens) (protein)
chain: T2 sequence (P11511 whole entry)

substrate: C[C@]12CC[C@H]3[C@@H](CCC4=CC(=O)CC[C@@]43C)[C@@H]1CC[C@@H]2O; test: (§1) Km for Cytochrome P450 19A1

In the case of B1, the Km is reported as 0.21 µM.

substrate: C[C@]12CCC(=O)C=C1CC[C@@H]1[C@@H]2CC[C@]2(C)C(=O)CC[C@@H]12; test: as §1

In the case of B1, the Km is reported as 0.06 µM.

substrate: C[C@]12CCC(=O)C=C1CCC1C2CC[C@@]2(C)C1C[C@@H](O)[C@@H]2O; test: (§2) Binding affinity for Cytochrome P450 19A1; design: species or system Homo sapiens

For B1, the Km was 58 µM.

substrate: C[C@]12CCC(=O)C=C1CC[C@@H]1[C@@H]2CC[C@]2(C)C(=O)CC[C@@H]12; test: as §2; design: species or system Homo sapiens

B1 gave a Km of 0.03 µM.

biological target: T1, Aromatase; test: as §2

Molecule `Clc1ccc(C2c3ccc(Cl)cc3-c3ncncc32)cc1` (stereo unspecified) has a Ki of 24 nM.

biological target: T2, Aromatase; test: as §2

First: C[C@]12CCC3C(CCC4=C(O)C(=O)CC[C@@]43C(F)F)C1CCC2=O (stereo partly specified)
Second: Clc1ccc(COC(Cn2cccc2)c2ccc(Cl)cc2Cl)cc1 (stereo unspecified)
The IC50 of the first is 110-fold higher: 3300 nM for the first, 30 nM for the second. The second is the more potent here.

biological target: T2, Aromatase

Going from `O=c1cc(-c2ccccc2)oc2c1ccc1ccc(O)cc12` to `C[C@]12CCC(=O)C=C1C[C@@H](Sc1ccc(NC(=O)CBr)cc1)C1C2CC[C@]2(C)C(=O)CCC12` (stereo partly specified), the Ki rises from 5 nM to 33000 nM (6600-fold). The first binds more tightly here.

Compared with `C[C@]12C=CC(=O)C=C1C=C[C@@H]1[C@@H]2CC[C@]2(C)C(=O)CC[C@@H]12`, `C[C@]12C=CC(=O)C=C1CCC1C2CC[C@]2(C)OC(=O)CCC12` (stereo partly specified) is 190-fold higher in Ki: 180 nM for the first, 35000 nM for the second. The first binds more tightly here.

First: C=C1C=C2CCC3C(CC[C@]4(C)C(=O)CCC34)[C@@]2(C)CC1 (stereo partly specified)
Second: C=C[C@]12CCC(=O)C=C1CCC1C2CC[C@]2(C)C(=O)CCC12 (stereo partly specified)
The Ki of the first is 1.6-fold higher: 4.7 nM for the first, 3 nM for the second. The second binds more tightly here.

Compared with `C[C@@]12CCCC1C1CCC3=CC(=O)C=C[C@]3(C)C1CC2` (stereo partly specified), `C/C=C/[C@]12CCC(=O)C=C1CCC1C2CC[C@]2(C)C(=O)CCC12` (stereo partly specified) is 20-fold lower in Ki: 1100 nM for the first, 56 nM for the second. The second binds more tightly here.

Going from `C[C@]12CCC3C(CCC4=CC(=O)CC[C@@]43C3CS3)C1CCC2=O` (stereo partly specified) to `C[C@]12CCC3C(CCC4=CC(=O)CC[C@]43C3CS3)C1CCC2=O` (stereo partly specified), the Ki falls from 75 nM to 1 nM (75-fold). The second binds more tightly here.

First: C[C@]12CCC3C(CCC4=CC(=O)CC[C@@]43C(F)F)C1CCC2=O (stereo partly specified)
Second: CC[C@]12CCC(=O)C=C1CCC1C2CC[C@]2(C)C(=O)CCC12 (stereo partly specified)
The Ki of the first is 9-fold lower: 1 nM for the first, 9 nM for the second. The first binds more tightly here.

First: C[C@]12CCC(=O)C=C1[C@H](Br)CC1C2CC[C@@]2(C)C1CC[C@@H]2OC(=O)CBr (stereo partly specified)
Second: CSC[C@]12CCC(=O)C=C1CCC1C2CC[C@]2(C)C(=O)CCC12 (stereo partly specified)
The Ki of the first is 25000-fold higher: 25000 nM for the first, 1 nM for the second. The second binds more tightly here.

Compared with `C[C@]12CCC(=O)C=C1C[C@@H](Sc1ccc(I)cc1)C1C2CC[C@]2(C)C(=O)CCC12` (stereo partly specified), `CCC[C@]12CCC(=O)C=C1CCC1C2CC[C@]2(C)C(=O)CCC12` (stereo partly specified) is 250-fold higher in Ki: 12 nM for the first, 3000 nM for the second. The first binds more tightly here.

`C[C@]12CCC(=O)C(N)=C1CCC1C2CC[C@]2(C)C(=O)CCC12` (stereo partly specified) and `C[C@]12CCC(=O)C(O)=C1CC[C@@H]1[C@@H]2CC[C@]2(C)C(=O)CC[C@@H]12` [FORMESTANE] are within 1.5-fold of each other in Ki: 37 nM for the first, 50 nM for the second.

Work on `CC1(C)C[C@@]2(C)C(=CC1=O)CCC1C2CC[C@]2(C)C(=O)CCC12` (stereo partly specified) yielded a Ki of 2.3 nM.

biological target: T2, Aromatase; test: Time-dependent irreversible inactivation of human placental Cytochrome P450 19A1

Compared with `C[C@]12CCC3C(CCC4=CC(=O)CC[C@@]43C(F)F)C1CCC2=O` (stereo partly specified), `C[C@]12CCC(=O)C=C1C[C@@H](Sc1ccc(N=[N+]=[N-])cc1)C1C2CC[C@]2(C)C(=O)CCC12` (stereo partly specified) is 4.3-fold higher in kinact: 0.000383 s⁻¹ for the first, 0.00166 s⁻¹ for the second.

Going from `C[C@]12CCC(=O)C=C1[C@H](Br)CC1C2CC[C@@]2(C)C1CC[C@@H]2OC(=O)CBr` (stereo partly specified) to `C[C@]12CCC(=O)C=C1C[C@@H](Sc1ccc(NC(=O)CBr)cc1)C1C2CC[C@]2(C)C(=O)CCC12` (stereo partly specified), the kinact rises from 0.000457 s⁻¹ to 0.00247 s⁻¹ (5.4-fold).

biological target: T1, Aromatase

For `Cn1nnc2ccc(C(c3ccc(Cl)cc3)n3cncn3)cc21` (stereo not drawn) [rac-VOROZOLE], the IC50 was 3 nM.
